These results are taken from PubChem BioAssay AID330 (DTP/NCI, 2004).

For the assay, the system named is P388 leukemia ip, CD2F1 mice, survival T/C. Briefly: NCI In Vivo Anticancer Drug Screen. Data for tumor model P388 Leukemia (intraperitoneal) in CD2F1 (CDF1) mice. To be noted: endpoint: median survival time, higher = longer survival. The gist of the method: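 Mice carrying the transplanted tumor received test compound or vehicle. Survival was recorded in each group, and the value is the treated-group measurement divided by that of the vehicle-treated control group.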

The mark [1] stands for this setting: dose: 50.0 mg/kg/injection, schedule: Q01DX009 (ip), vehicle: saline with Tween-80.
Where [2] appears, read: dose: 100.0 mg/kg/injection, schedule: Q01DX009 (ip), vehicle: saline with Tween-80.
Setting [3] is: dose: 25.0 mg/kg/injection, schedule: Q01DX005 (ip), vehicle: Klucel (hydroxypropylcellulose) (HPC).
Where [4] appears, read: dose: 50.0 mg/kg/injection, schedule: Q01DX005 (ip), vehicle: Klucel (hydroxypropylcellulose) (HPC).
Setting [5] is: dose: 100.0 mg/kg/injection, schedule: Q01DX005 (ip), vehicle: Klucel (hydroxypropylcellulose) (HPC).
[6] abbreviates: dose: 100.0 mg/kg/injection, schedule: Q01DX001 (ip), vehicle: saline with Tween-80.
The mark [7] stands for this setting: dose: 12.5 mg/kg/injection, schedule: Q01DX009 (ip), vehicle: Klucel (hydroxypropylcellulose) (HPC).
Setting [8] is: dose: 25.0 mg/kg/injection, schedule: Q01DX009 (ip), vehicle: Klucel (hydroxypropylcellulose) (HPC).
Setting [9] is: dose: 50.0 mg/kg/injection, schedule: Q01DX005 (ip), vehicle: saline with Tween-80.
[10] abbreviates: dose: 200.0 mg/kg/injection, schedule: Q01DX005 (ip), vehicle: Klucel (hydroxypropylcellulose) (HPC).
The mark [11] stands for this setting: dose: 100.0 mg/kg/injection, schedule: Q04DX003 (ip), vehicle: saline with Tween-80.
[12] abbreviates: dose: 200.0 mg/kg/injection, schedule: Q04DX003 (ip), vehicle: saline with Tween-80.
The mark [13] stands for this setting: dose: 50.0 mg/kg/injection, schedule: Q01DX009 (ip), vehicle: Klucel (hydroxypropylcellulose) (HPC).
Setting [14] is: dose: 100.0 mg/kg/injection, schedule: Q01DX009 (ip), vehicle: Klucel (hydroxypropylcellulose) (HPC).
Where [15] appears, read: dose: 200.0 mg/kg/injection, schedule: Q01DX009 (ip), vehicle: Klucel (hydroxypropylcellulose) (HPC).

Several values for one entry are separate records, joined by “and”; a condition that tells them apart may be missing. Equal entries are not always repeated. Toxic doses and inconclusive results are not listed.

Turning to `CC(O)(CC(=O)O)CC(=O)O`, the T/C is, setting by setting: (dose: 25.0 mg/kg/injection, schedule: Q01DX005 (ip), vehicle: water) 101 % of control; (dose: 50.0 mg/kg/injection, schedule: Q01DX005 (ip), vehicle: water) 100 % of control; (dose: 100.0 mg/kg/injection, schedule: Q01DX005 (ip), vehicle: water) 95 % of control; (dose: 200.0 mg/kg/injection, schedule: Q01DX005 (ip), vehicle: water) 90 % of control; (dose: 400.0 mg/kg/injection, schedule: Q01DX005 (ip), vehicle: water) 92 % of control.
Take `O=[N+]([O-])c1ccc(-c2nc(/C=N/N3CCSCC3)cs2)s1`: the T/C by setting is: (dose: 25.0 mg/kg/injection, schedule: Q01DX009 (ip), vehicle: saline with Tween-80) 100 % of control; under setting [1], 95 % of control; under setting [2], 95 % of control.
For the compound `CCCn1c(C)nc2c(N)cc(C)cc21`, the T/C runs as follows: under setting [3], 101 % of control; under setting [4], 94 % of control; under setting [5], 97 % of control.
As for `COc1ccc(NCC(=O)O)c([N+](=O)[O-])c1`, the T/C reads like this: under setting [6], 100 % of control; (dose: 200.0 mg/kg/injection, schedule: Q01DX001 (ip), vehicle: saline with Tween-80) 109 % of control; (dose: 400.0 mg/kg/injection, schedule: Q01DX001 (ip), vehicle: saline with Tween-80) 109 % of control.
For `CCOC(=O)/C=C(\I)C(=O)OCC`, the T/C (dose: 6.25 mg/kg/injection, schedule: Q01DX009 (ip), vehicle: Klucel (hydroxypropylcellulose) (HPC)) was 109 % of control; the T/C under setting [7] is 100 % of control; the T/C under setting [8] is 98 % of control.
Regarding `Cc1cc(=O)n(-c2ccc(S(N)(=O)=O)cc2)c(C)c1C(=O)O`, the T/C by setting is: under setting [9], 98 % of control; (dose: 100.0 mg/kg/injection, schedule: Q01DX005 (ip), vehicle: saline with Tween-80) 96 % of control; (dose: 200.0 mg/kg/injection, schedule: Q01DX005 (ip), vehicle: saline with Tween-80) 103 % of control.
With `CCOC(=O)C1=C(N)OC(c2ccccc2)=C(C#N)C1c1ccccc1Cl` (centres undefined), the T/C under setting [4] is 101 % of control, the T/C under setting [5] was 113 % of control and the T/C under setting [10] was 97 % of control.
On to `CSC(=S)N/N=C\C(C)=N/N=C(N)N`, for which the T/C is 101 % of control (dose: 3.12 mg/kg/injection, schedule: Q01DX009 (ip), vehicle: saline); 101 % of control (dose: 6.25 mg/kg/injection, schedule: Q01DX009 (ip), vehicle: saline); 107 % of control (dose: 12.5 mg/kg/injection, schedule: Q01DX009 (ip), vehicle: saline).
As for `Cc1csc(/N=C2\N/C(=N\c3nc(C)cs3)c3ccccc32)n1`, the T/C is, setting by setting: under setting [1], 88 % of control; under setting [2], 86 % of control.
For the compound `CCCn1c2ccccc2c2c(C)c3cnccc3c(C)c21`, the T/C by setting is: (dose: 12.5 mg/kg/injection, schedule: Q04DX002 (ip), vehicle: saline with Tween-80) 100 % of control; (dose: 25.0 mg/kg/injection, schedule: Q04DX002 (ip), vehicle: saline with Tween-80) 97 % of control; (dose: 50.0 mg/kg/injection, schedule: Q04DX002 (ip), vehicle: saline with Tween-80) 94 % of control; (dose: 100.0 mg/kg/injection, schedule: Q04DX002 (ip), vehicle: saline with Tween-80) 105 % of control.
As for `CCOP(=O)(CSc1ccccc1)NC1CCCCC1` (centres undefined), the T/C runs as follows: under setting [3], 94 % of control; under setting [4], 94 % of control; under setting [5], 88 % of control.
With `COc1ccc(Nc2cc[nH]c(=O)c2NC(C)=O)cc1`, the T/C is 100 % of control (dose: 60.0 mg/kg/injection, schedule: Q01DX005 (ip), vehicle: saline with Tween-80); 96 % of control (dose: 120.0 mg/kg/injection, schedule: Q01DX005 (ip), vehicle: saline with Tween-80); 94 % of control (dose: 240.0 mg/kg/injection, schedule: Q01DX005 (ip), vehicle: saline with Tween-80).
With `CC12CCC(=O)C=C1CCC1C2CCC2(C)C(OC(=O)C34C=CC(=O)C3C3C=CC4CC3)CCC12` (centres undefined), the T/C is 95 % of control (dose: 25.0 mg/kg/injection, schedule: Q01DX005 (ip), vehicle: distilled water + Tween-80) and 92 % of control (dose: 50.0 mg/kg/injection, schedule: Q01DX005 (ip), vehicle: distilled water + Tween-80).
Consider `O=C(O)CCC(=O)c1ccc(Br)cc1`, for which the T/C by setting is: under setting [11], 109 % of control; under setting [12], 104 % of control; (dose: 400.0 mg/kg/injection, schedule: Q04DX003 (ip), vehicle: saline with Tween-80) 109 % of control.
As to `CCn1ccc(NS(=O)(=O)c2ccc(N)cc2)nc1=O`, the T/C was 98 % of control under setting [4], 105 % of control under setting [5] and 100 % of control under setting [10].
With `C/C=C/C(=O)Nc1ncc([N+](=O)[O-])s1`, the T/C is 111 % of control under setting [13], 114 % of control under setting [14] and 113 % of control under setting [15].
On to `CCN(CC)c1c(C)nnc2c3cccnc3nn12`, for which the T/C was 100 % of control (dose: 25.0 mg/kg/injection, schedule: Q01DX001 (ip), vehicle: saline with Tween-80); 103 % of control (dose: 50.0 mg/kg/injection, schedule: Q01DX001 (ip), vehicle: saline with Tween-80); 106 % of control and 97 % of control under setting [6].
Turning to `N#CC1C(=O)NC(=O)C(C#N)C12CCCCC2` (centres undefined), the T/C reads like this: (dose: 50.0 mg/kg/injection, schedule: Q04DX003 (ip), vehicle: saline with Tween-80) 105 % of control; under setting [11], 100 % of control; under setting [12], 105 % of control.
In the case of `CCC(=O)c1cc2ccccc2c2ccccc12`, the T/C is, setting by setting: (dose: 12.5 mg/kg/injection, schedule: Q01DX005 (ip), vehicle: saline) 96 % of control; (dose: 25.0 mg/kg/injection, schedule: Q01DX005 (ip), vehicle: saline) 100 % of control; under setting [9], 103 % of control; (dose: 50.0 mg/kg/injection, schedule: Q01DX005 (ip), vehicle: saline) 100 % of control.
As for `C1CCC2[N-]CC3CCCCC3[N-]CC3CCCCC3[N-]CC3CCCCC3[N-]CC2C1.[Cu+2].[O-][Cl+3]([O-])([O-])O` (centres undefined), the T/C (dose: 0.78 mg/kg/injection, schedule: Q01DX009 (ip), vehicle: Klucel (hydroxypropylcellulose) (HPC)) is 117 % of control; the T/C (dose: 6.25 mg/kg/injection, schedule: Q01DX009 (ip), vehicle: saline with Tween-80) was 152 % of control; the T/C (dose: 8.0 mg/kg/injection, schedule: Q01DX009 (ip), vehicle: saline with Tween-80) is 154 % of control; the T/C under setting [7] is 87 % of control; the T/C (dose: 12.5 mg/kg/injection, schedule: Q01DX009 (ip), vehicle: saline with Tween-80) is 158 % of control; the T/C under setting [8] was 87 % of control.
Consider `CCNC(=O)OCCN(CCOC(=O)NCC)CCc1ccccc1`, for which the T/C is 110 % of control (dose: 60.0 mg/kg/injection, schedule: Q01DX005 (ip), vehicle: saline); 117 % of control (dose: 120.0 mg/kg/injection, schedule: Q01DX005 (ip), vehicle: saline); 99 % of control (dose: 240.0 mg/kg/injection, schedule: Q01DX005 (ip), vehicle: saline).
Regarding `CC(=O)Nc1ccc(C(=O)CN(Cc2ccccc2)Cc2ccccc2)cc1`, the T/C is, setting by setting: under setting [4], 87 % of control; under setting [5], 87 % of control.
Turning to `C[C@H](N)[C@@H](O)/C=C/c1ccccc1`, the T/C was 98 % of control (dose: 10.0 mg/kg/injection, schedule: Q01DX005 (ip), vehicle: saline); 100 % of control (dose: 20.0 mg/kg/injection, schedule: Q01DX005 (ip), vehicle: saline); 100 % of control (dose: 40.0 mg/kg/injection, schedule: Q01DX005 (ip), vehicle: saline).
Consider `O=C(Nc1ccc(Br)cc1)c1ccc(Cl)c(Cl)c1`, for which the T/C under setting [14] was 116 % of control; the T/C under setting [15] was 119 % of control; the T/C (dose: 400.0 mg/kg/injection, schedule: Q01DX009 (ip), vehicle: Klucel (hydroxypropylcellulose) (HPC)) was 117 % of control.
On to `CCC(NC(C)C)C(O)c1ccc(O)c2[nH]c(=O)ccc12` (centres undefined), for which the T/C under setting [13] was 104 % of control, the T/C under setting [14] was 99 % of control and the T/C under setting [15] is 96 % of control.
